Legend:
[1] = tested on: MPT-synthesis in MOCS1-deficient liver extracts; assay: In vitro reconstitution of MOCS1-deficient liver extract, nit-1 reconstitution assay; assay type: biochemical, mice
Experimental: (§1) FIG. 6: Restoration of the MPT-biosynthesis in vitro and in vivo. (a) In vitro restoration of MOCS1-deficient liver extracts with precursor Z. Protein raw extract of a five day old MOCS1^−/− were incubated (1 h) with the indicated amounts of purified precursor Z per mg protein. Restoration of MPT-synthesis was measured by means of nit-1 reconstitution assay. (b-d) Biochemical analysis of precursor Z treated MOCS1-deficient animals. The mice were twice weekly injected with increasing amounts of precursor Z, beginning with 2 μg after birth and up to 8 μg after weaning. Between the days 25-55 after birth the treatment was stopped. On day 0 (4 hours after the last injection), 1, 4 and 7 respectively, two mice were sacrificed. Two liver samples of each animal were removed and separately further processed. Each value in the figure was thus determined four times. Total-MPT inclusive Moco (b), sulphite oxidase activity (c) and xanthine dehydrogenase (d) are indicated as percentage of the corresponding wildtype value (n=4).
The biological activity of the purified precursor Z could be verified by a quantitive in vitro conversion to MPT tinder use of purified E. coli MPT-Synthase^B26 . […] In order to determine the amount of precursor Z needed for a successful reestablishment of Moco-biosynthesis in MOCS1-deficient mice, we carried out an in vitro reconstitution with various amount of precursor Z in protein-raw extract from the liver of five day old MOCS1-deficient mice carried out (FIG. 6a). In the case of the employment of 134 ng precursor Z/mg protein a near complete reestablishment of Moco-biosynthesis could be achieved, while 27 ng precursor Z led to a reconstitution of approximately 50%. The protein total concentration of the liver extract amounted to 6 mg (obtained from 50 mg total liver tissue) which necessitated a total required amount of precursor Z of 0.8 μg for each animal for complete reestablishment of the MPT-synthesis under in vitro conditions. Accordingly for an adult animal with a body weight of 20 g and an approximate mass or weight of the liver of 1 g, 16 μg precursor Z was needed for complete reestablishment, however only 3 μg for an activation of 50%. […] Although the in vitro titration experiment yielded no information regarding which part of the Moco is transmitted to the Apo-sulfhite-oxidase, the investigated or established amount of precursor Z related to the maximal capacity of the MPT-production in the liver of MOCS1-deficient mice.

MOCS1-deficient mice [2] = assay: Lifespan and phenotype of MOCS1-/- mice injected with precursor Z into the liver; assay type: in vivo; settings: for Average Lifespan: injected into the liver
Experimental: The half-life of sulphite oxidase in rat liver was determined to be 3-4 days^B27.
The lowest dose amounted to 0.2 μg precursor Z, administered every second day. […] With the administration of 1-2 μg every third day the mice achieved a greater age and were suckled until day 20-30, thereafter the MOCS1^−/ animals however appeared slower in their flight reaction and in their internalization of their environment than the corresponding control animals. This difference disappeared about day 40, after which all MOCS1^−/− animals were as agile and full of life as the control individuals. […] The injection of 2-4 μg precursor Z every third day ws found to be the most successful treatment.

MOCS1-deficient mice [3] = assay: Open field test; assay type: in vivo; set-up: dose or concentration left out as unconfirmed; settings: precursor Z every third day
MOCS1-deficient mice [4] = assay: Light/dark box test; assay type: in vivo; settings: treated MOCS1-deficient mice
Experimental: Avoidance of light was tested in the light/dark box, in which the animals were placed into the light area and the time was determined until the animals sought out the darker area. […] The results were compared with wild-type controls. The mice were sequentially introduced into all four sectors and the time was measured until the animals found and climbed onto the platform (FIG. 7). […] In a second test series, the average swim time was reduced to 20-25% of the first test both in the “knockout” mice as well as with the control animals. In a third test series, the platform was removed and the time was measured that the mice spent in the “correct” sector—the sector that previously contained the platform. Both groups spent approximately 50% of the time in the correct sector.

MOCS1-deficient mice [5] = assay: Running wheel test; assay type: in vivo; settings: 10 and 20 RPM
Total-MPT inclusive Moco = assay: MPT content in liver after last injection; assay type: in vivo, mice
Experimental: as §1, with “Total-MPT inclusive Moco (b), sulphite oxidase activity (c) and xanthine dehydrogenase (d) are indicated as percentage of the corresponding wildtype value (n=4).” left out
(§2) In homozygote MOCS1^−/−-animals, in which precursor Z was injected regularly and which appeared normal with regard to weight, appearance and behavior, the treatment was halted and the animals were sacrificed sequentially at days 0, 1, 4 and 7 after the last injection in order to determine the MPT-content and the Mo-enzyme activity in the liver (FIG. 6b-d). Due to the rapid conversion of the administered precursor Z to MPT, the highest MPT-value was measured on the day of the injection (16±1% of the wildtype; FIG. 6b). […]

sulphite oxidase = assay: Sulphite oxidase activity in liver after last injection; assay type: in vivo, mice
Experimental: as §1, with “Total-MPT inclusive Moco (b), sulphite oxidase activity (c) and xanthine dehydrogenase (d) are indicated as percentage of the corresponding wildtype value (n=4).” left out
as §2

xanthine dehydrogenase = assay: Xanthine dehydrogenase activity in liver after last injection; assay type: in vivo, mice
Experimental: as §1, with “Total-MPT inclusive Moco (b), sulphite oxidase activity (c) and xanthine dehydrogenase (d) are indicated as percentage of the corresponding wildtype value (n=4).” left out
as §2

MOCS1-deficient mice [6] = assay: Xanthin and uric acid in urine of treated knockout mice; assay type: in vivo; settings: data not shown
[7] = low pH-values; cited from earlier work
[8] = adult animal, body weight 20 g, liver 1 g

With `Nc1nc2c(c(=O)[nH]1)N[C@@H]1[C@H](N2)O[C@@H]2COP(=O)(O)O[C@@H]2C1(O)O` [precursor Z] the reconstitution ([1]; 27 ng precursor Z, liver extract of five day old MOCS1-deficient mice, 1 h) was “approximately 50%”, the “reestablishment of Moco-biosynthesis” value ([1]; 134 ng precursor Z/mg protein, liver extract of five day old MOCS1-deficient mice, 1 h) was “near complete” and the “amount of precursor Z needed for an activation of 50%” value [1, 8] was 3 µg. For the same compound, the “amount of precursor Z needed for complete reestablishment” value [1, 8] was 16 µg, the “total required amount of precursor Z per animal for complete reestablishment of MPT-synthesis” value ([1]; five day old animal, 6 mg liver extract protein, in vitro conditions) was 0.8 µg and the “development and weight gain” value (MOCS1-deficient mice [2]; 0.2 μg every second day, 11 mice) was “developed normally”. For the same compound, the “Average Lifespan” value (MOCS1-deficient mice [2]; 0.2 μg every second day) was 17.7 days, the “Average Lifespan” value (MOCS1-deficient mice [2]; 1 μg (prior to weaning) and 2 μg (after weaning) every third day) was 32.9 days and the “Average Lifespan” value (MOCS1-deficient mice [2]; 1 μg every third day) was 25.2 days. For the same compound, the “Average Lifespan” value (MOCS1-deficient mice [2]; 2 μg every second day) was 47.4 days, the “fraction of treated animals that died between day 20 and 40” value (MOCS1-deficient mice [2]; 1-2 μg every third day) was “Approximately half” and the “deaths between days 40-70” value (MOCS1-deficient mice [2]; 2-4 μg every third day) was “no animal died”. For the same compound, the “offspring of pairings of treated animals” value (MOCS1-deficient mice [2]; 2-4 μg every third day) was “normally developed, healthy off-spring”, the “difference in weight, behavior or other phenotypic characteristics versus wild type or heterozygous siblings” value (MOCS1-deficient mice [2]; prior to weaning) was “no difference could be determined” and the “open field: movement, learning and social behavior versus wildtype” value (MOCS1-deficient mice [3]) was “no significant differences”. The “light/dark box: time until seeking the darker area versus wild type” value (MOCS1-deficient mice [4]) was “no significant difference”, the “running wheel: limitations of movement” value (MOCS1-deficient mice [5]) was “Limitations of movement were not shown” and the MPT-value in liver (Total-MPT inclusive Moco; day of the injection (day 0, 4 hours after the last injection)) was 16±1 % of the wildtype. The MPT-content in liver (Total-MPT inclusive Moco; within the following four days after last injection) was “less than 4 % of the wildtype value”, the “sulphite oxidase activity, course” value (sulphite oxidase; day 0 to day 1 after the last injection) was “rise” and the “sulphite oxidase activity (% of wildtype) versus reconstituted MPT-content” value (sulphite oxidase; liver) was “higher than the reconstituted MPT-content”. For the same compound, the “xanthin dehydrogenase activity, course” value (xanthine dehydrogenase; after day 1) was “rapidly decreased”, the “xanthin-dehydrogenase activity (% of wildtype) versus reconstituted MPT-content” value (xanthine dehydrogenase; liver) was “higher than the reconstituted MPT-content” and the “uric acid in the urine” value (MOCS1-deficient mice [6]) was “not measurable”. The “xanthin in the urine” value (MOCS1-deficient mice [6]) was “very high” and the estimated half time [7] was “several hours”.
